In US20230172894A1, “COMBINATION TREATMENT FOR FUMARATE-RELATED DISEASES” (IMCYSE SA, priority 2020, published 2023):
Where a name gives a salt, the structure may show the parent alone.

How the values were obtained:
[1] = system: experimental auto-immune encephalomyelitis (EAE) development in mice; conditions: Example 2; for mice died in group: 16 mice per group; for disease onset: peptide 30 μg/Alum s.c. days 4, 9, 14, 19, BG-12 100 mg/kg p.o. BID days 0 to 27; for disease onset / AUC (area under the curve) of EAE scores / MMS (mean maximal score) / end score (clinical EAE score 0-5): single agents vs negative control, combinations vs peptides only or BG-12 only
Text: Example 2: Effect of the therapeutic administration of an immunogenic peptide comprising a MOG35-55 MHCII T cell epitope linked or not to an HCPYC oxidoreductase motif in combination with dimethyl fumarate (BG-12, […]™) on experimental auto-immune encephalomyelitis (EAE) development in mice.
The study used a total of 96 female C57BL/6 mice (Taconic Biosciences, 10 weeks old on Day 0). Mice were acclimated for 14 days prior to the first injection. Mice were assigned to groups in a balanced manner to achieve similar average weight across the groups at the start of the study.
Treatment 1 was administered once on each of the days indicated in Table 3, s.c., at a volume of 0.05 mL/site, each mouse receiving injection at two sites, for a total of 0.1 mL/mouse/dosing day. IMCY-0189 or MOG35-55 peptide total dose was 30 μg per administration.
BG-12 was dosed at 100 mg/kg.
All dosing were done at the same time (+/−1 hour) each dosing day. For the BID groups there were no less than 10 and no more than 14 hours between doses.
Lyophilized mouse MOG35-55 peptide with the sequence […] (SEQ ID NO:205), comprising the mouse Myelin Oligodendrocyte Glycoprotein (MOG35-55) MHCII T cell epitope […] (SEQ ID NO:169), was solubilized immediately before use. Lyophilized MOG35-55 peptide was thawed at room temperature for 10 minutes, resuspended in Na Acetate buffer 50 mM NaCl 0.9% pH 5.4 and incubated at room temperature for 10 minutes. Reconstituted MOG35-55 peptide was then mixed with Imject™ Alum Adjuvant before injection. Note that the positions 35 to 55 refer to the mature protein, i.e. after cleavage of the signal peptide (AA 1-29), defined by SEQ ID NO: 208. In the full-length amino acid sequence of MOG (SEQ ID NO: 184), said peptide would be at positions 64-84.
Lyophilized IMCY-0189 was thawed at room temperature for 10 minutes, resuspended in Na Acetate buffer 50 mM NaCl 0.9% pH 5.4 and incubated at room temperature for 10 minutes. Reconstituted peptide was then mixed with Imject™ Alum Adjuvant before injection.
For Treatment 2, vehicle was 0.5% HPMC, 0.2% Tween 20, and 50 mM citrate buffer at pH 4. BG-12 (Santa Cruz Biotechnology, sc-239774) and was prepared at least every 2 weeks. At each preparation the required amount of BG-12 was weighed out into a mortar and triturated with a pestle. Vehicle was then added in small increments and mixed until the final volume was reached. The material was then vortexed and sonicated in a water bath until a homogeneous suspension was obtained. Formulated BG-12 was stored at 4° C., stirring continuously.
EAE induction, scoring and statistical analysis were performed as described in example 1.
EAE development was evaluated by comparing clinical EAE readouts for all groups to the negative control (Saline/Vehicle) group.

[2] = system: experimental auto-immune encephalomyelitis (EAE) development in mice; test: Example 4: serum neurofilament light (NF-L) levels in EAE mice; type: in vivo, female C57BL/6 mice; conditions: Day 28 serum, vs negative control
Experimental: On Day 28, blood was collected from all mice into gel clot activator tubes and allowed to clot at room temperature for ˜30 minutes. Blood is then centrifuged at ˜10000 g for 5 minutes. Serum was transferred into Eppendorf tubes and stored at −80° C. until shipment to Quanterix™. Serum Neurofilament light (NF-L) protein levels were quantified using Simoa® NF-light Advantage kit as described in example 1.
Serum neurofilaments levels were quantified as described in example 3.

Compound	mice died in group [1]	disease onset [1]	AUC (area under the curve) of EAE scores [1]	MMS (mean maximal score) [1]	end score (clinical EAE score 0-5) [1]	serum NF-L levels [2]
HCPYCGWYRSPFSRVVHLYR [IMCY-0189]	1 mice	postponed disease onset	statistically significant reduced	statistically significant reduced	reduced end score	statistically significant reduced NF-L levels
COC(=O)/C=C/C(=O)OC [BG-12, dimethyl fumarate, reference compound]	No mice died	postponed disease onset	statistically significant reduced	statistically significant reduced	reduced end score	statistically significant reduced NF-L levels
